A short description of this series: Human HepG2 cell viability assay in 384 well format. Conditions: HepG2 cells, read-out: Inhibition. The series is classed as toxicity, cell-based. Further details: dose 125 nL, time 70.5 hour; concentration not given beside the values.

Each structure is given as a SMILES string.

`O=C(O)CCc1cc2n(n1)CCCN(C(=O)c1cc3ccccc3s1)C2`: the cytotoxicity at 70.5 h was 30%.
The same measure for `CCN1CCN(CC(=O)N2CCOC(Cc3ccc(OC)cc3)C2)CC1` (stereo not drawn): -16%.
Turning to `CC(C)N1CCC(C(=O)N(C)C(C)c2ccon2)CC1` (stereo not drawn), the cytotoxicity at 70.5 h was -0.598%.
As for `Cc1c(C(C)NC2CCN(C(C)C)CC2)cnn1-c1ccc(F)cc1F` (stereo not drawn), the cytotoxicity at 70.5 h was -9.98%.
The same measure for `CC(C)(C)N1CC(C(=O)N2CC(Oc3ccc(F)cc3)C2)CC1=O` (stereo not drawn): 18.6%; for `Cc1oc(-c2ccsc2)nc1CN1CC[C@@H]2CCCC[C@H]2C1`: 13.8%; for `CCCN(CCOC)C(=O)c1cc(Cn2c(C)nc3ccccc32)[nH]n1`: -2.8%.
The result for `CCn1c(CC2CCN(S(=O)(=O)c3cccc(C)c3)CC2)nn(C)c1=O` reads -4.11%; that for `CC(C)(C)c1cc2ncn(CCCN3CCCCC3CO)c(=O)c2s1` (stereo not drawn), -14.7%.
The same measure for `CC(C)Cc1ncc2c(n1)CN(C(=O)c1ccc(CN3CCCC3)o1)C2`: -7.27%; for `CC(C)N1CCC(CC(=O)NCCc2cc(O)ncn2)CC1`: -11.7%.
As for `NC(=O)C1CCCN(Cc2ccc(C(=O)Nc3cnns3)cc2)C1` (stereo not drawn), the cytotoxicity at 70.5 h is 5.24%.
With `CCC[C@@H]1CN(Cc2ccccc2-c2ccco2)C[C@H]1NC(C)=O`, the cytotoxicity at 70.5 h is -5.42%.
The same measure for `CCc1nc(NC(=O)NCCc2cccc(C)n2)nn1C`: -12.7%; for `C[C@@H]1CN(Cc2nnc(-c3cccnc3)o2)CC[C@]1(C)O`: 6.07%; for `COc1cccc(OC)c1OCCn1c(C)c(C)oc1=O`: 0.271%.
The same measure for `CC[C@H]1CN(C(=O)c2cnc(CN3CCCC3)s2)CC[C@@]1(C)O`: 22.4%; for `Cc1ncsc1CCC(=O)NC1CCN(c2ccc(Cl)nn2)CC1`: -13.9%.
The result for `CCOc1ccccc1-c1cc2c(cc1C(N)=O)OCO2` reads 9.52%; that for `CCc1cc(CN2CCC(CCC(=O)Nc3ccccc3Cl)CC2)on1`, -0.0329%; that for `CCCc1nc(C(=O)N(C)Cc2cnn(-c3cccc(OC)c3)c2)cs1`, -8.69%.
`O=C(O)[C@@H]1CN(Cc2ccc3nsnc3c2)C[C@H]1c1ccncc1`: the cytotoxicity at 70.5 h amounted to 6.98%.
The same measure for `CCCc1c(C2CCOC(C)(C)C2)nc(N)c(C#N)c1-c1cnn(C)c1` (stereo not drawn): -2.75%.
In the case of `CCN(Cc1noc(C)n1)C(=O)CC1C(=O)NCCN1CC(C)(C)C` (stereo not drawn), the cytotoxicity at 70.5 h came to 9.61%.
Consider `O=C1Nc2ccccc2C12CCCN(Cc1ccncc1)C2` (stereo not drawn), for which the cytotoxicity at 70.5 h is -10.6%.
Take `Cc1ccc(N2CCN(C(=O)CCc3n[nH]c(C)c3C)CC2=O)cc1`: the cytotoxicity at 70.5 h was -0.118%.
The same measure for `OCCN1CCc2[nH]nc(C(c3ccccc3)c3ccccc3)c2C1`: -7.95%.
The same measure for `CCn1cc(CN2CCCn3nc(CNC(=O)N(C)C)cc3C2)cn1`: -7.73%; for `COc1cc2c(cc1CNC(=O)C(C)n1ccnc1C(C)C)OCCO2` (stereo not drawn): -3.89%.
The same measure for `C[C@@H]1CN(Cc2ccncc2)C[C@@]1(O)C1CC1`: -11.5%; for `CCN(Cc1c(C)nn(C)c1C)C(=O)C1COc2ccccc2C1` (stereo not drawn): -4.62%; for `Cc1cc(CC2COc3ccccc3C2)cnc1N` (stereo not drawn): -13.2%.
As for `CCC1c2cccn2CCN1C(=O)c1ccno1` (stereo not drawn), the cytotoxicity at 70.5 h is -9.21%.
The same measure for `OCc1ccc(CN2CCC(n3cc(-c4ccsc4)nn3)CC2)o1`: -5.24%; for `CC(Cn1cccn1)NCc1csc2c1CCCC2` (stereo not drawn): 0.457%; for `CCCN1CCN(C(=O)Cc2cccnc2)[C@H]2CS(=O)(=O)C[C@H]21`: 11.9%.
The same measure for `CCCc1nc(C)cc(N2CCNC(C(=O)NCc3cccnc3)C2)n1` (stereo not drawn): 31%; for `CCc1cnc(C)nc1NCCc1nc(N)cc(O)n1`: -3.5%.
Regarding `CNc1cc(C)nc(N2CCC3(CC2)[C@H](O)C[C@@H]3OCCO)n1`, the cytotoxicity at 70.5 h was -4.12%.
Regarding `Cc1cnn(C(C)C2CC2)c1NC(=O)c1ccco1` (stereo not drawn), the cytotoxicity at 70.5 h is -3.4%.
The same measure for `Cc1nccnc1N1Cc2cnc(CC(C)C)nc2C1`: -6.3%; for `CCCc1cncnc1N1CCC(NCCc2nc(O)cc(O)n2)CC1`: -7.02%.
As for `COc1cnc(N2CC(N3CCOCC3)C2)nc1-c1ccnn1C`, the cytotoxicity at 70.5 h came out at 6.03%.
The same measure for `CSCc1noc(CNC(=O)C2CCN(C(=O)C3CCCC3)CC2)n1`: -10.6%; for `CC(C)N1CCCC(CN(C)c2ccc(Cn3ccnc3)cn2)C1` (stereo not drawn): -12.6%; for `CCOc1ccc(C(=O)CCC(=O)NCc2cncn2CC)cc1C`: 40.5%.
The same measure for `CCc1n[nH]c(C(=O)N2CCCC3(CN(C)C(=O)O3)C2)c1C` (stereo not drawn): -13.7%.
With `Cc1ccc(F)cc1-n1c(CCCN2CCOCC2)n[nH]c1=O`, the cytotoxicity at 70.5 h was -7.44%.
In the case of `O=C(CCC(F)(F)F)N1CCN(Cc2ccncc2)[C@@H]2CS(=O)(=O)C[C@@H]21`, the cytotoxicity at 70.5 h is 24%.
As to `O=C(NCCc1cnccn1)c1ccc(S(=O)(=O)NC2CCC2)cc1`, the cytotoxicity at 70.5 h is 18.7%.
The same measure for `COc1cccc(C(=O)N2CCC3(CCC(=O)N(C(C)C)C3)CC2)c1C`: -4.66%; for `CSCCCN1C[C@H]2CC[C@@H]1CN(Cc1[nH]cnc1C)C2`: -2.71%.
With `COc1cccc2c(=O)n(CCN3CCNCC3)cnc12`, the cytotoxicity at 70.5 h was -0.783%.
The result for `CCN1CCN(S(=O)(=O)N2CCCCCC2)[C@H]2CS(=O)(=O)C[C@H]21` reads 30%; that for `CN1CC2(CCN(C(=O)CCCOCc3ccccc3)C2)OC1=O` (stereo not drawn), -11.2%.
`COc1cc(C)ccc1OCc1nc(C(=O)N2CCC(C)CC2)co1`: the cytotoxicity at 70.5 h was -2.55%.
As for `CCOc1ccc(-c2cc(CCN)ccc2OC)cc1`, the cytotoxicity at 70.5 h was -1.62%.
The same measure for `O=C(CCc1cc(O)no1)N1CCCC(OCc2cccnc2)C1` (stereo not drawn): -10.1%; for `OC1CCN(C2CCN(Cc3cccc(Cn4cccn4)c3)CC2)CC1`: 5.45%.
Take `O=C(C1CC1)N1CCc2c(ncnc2N2CCN3CCCC3C2)C1` (stereo not drawn): the cytotoxicity at 70.5 h was 26%.
For the compound `CCc1ncc(C(=O)N2CCCN(C3CCCC3)CC2)cn1`, the cytotoxicity at 70.5 h was -14.6%.
For the compound `CN(C)CCNC(=O)c1cc2n(n1)CCN(C(=O)CC(C)(C)C)C2`, the cytotoxicity at 70.5 h is -9.74%.
As to `c1ccc(C2CCCN(Cc3cc4n(n3)CCNC4)CC2)cc1` (stereo not drawn), the cytotoxicity at 70.5 h was -6.51%.
The result for `CO[C@H]1CN(C(C)C)C[C@@H]1NC(=O)c1cc(COc2ccccc2)[nH]n1` reads -3.71%; that for `O=C(c1cnc2ccccc2c1)N1CCCC(O)(CN2CCCC2)C1` (stereo not drawn), -0.693%; that for `Cc1cc2c(cc1C(=O)N1CCC3(CC(=O)NC3=O)C1)OCCO2` (stereo not drawn), 10.6%.
`CC(=O)N1CCN(C(=O)Nc2cnc3c(cnn3C(C)C)c2)CC1`: the cytotoxicity at 70.5 h was 14.8%.
The result for `COc1ccccc1C(O)CNC(=O)NCc1csc(C)n1` (stereo not drawn) reads 1.19%; that for `COc1ccc(C(CNC(=O)NCc2csc(C)n2)N(C)C)cc1` (stereo not drawn), 21%; that for `CCS(=O)(=O)c1ccccc1N1CCC(NC(=O)C2CC2)CC1`, 1.87%.
The same measure for `Cc1ccc(-c2cc(CNC(=O)N3CCCN(C)CC3)on2)cc1`: 2.1%.
The result for `CCc1nc(C2CCCN(C(=O)c3ccccc3O)C2)no1` (stereo not drawn) reads 3.74%.
As to `CC(C)n1ncc2cc(NC(=O)N3CCC(C(N)=O)C3)cnc21` (stereo not drawn), the cytotoxicity at 70.5 h was 16.7%.
The result for `Cc1nnc(CN(C)C2CCN(CCc3ccccn3)CC2)o1` reads -4.31%.
The same measure for `CCN1CCN(C(=O)c2ccc(=O)n(C)c2)c2ccccc21`: -3.86%; for `O=C(NCC(=O)N1CCCC1)c1nn(-c2ccccc2F)cc1O`: 3.63%.
`O=C(c1nn(-c2ccccc2F)cc1O)N1CCCCC1`: the cytotoxicity at 70.5 h is -7.27%.
With `COc1ccccc1C(=O)NS(=O)(=O)c1cccc(C#N)c1`, the cytotoxicity at 70.5 h is -7.53%.
Regarding `CC(C)Oc1ncccc1CNC(=O)NC1CCOc2ccccc21` (stereo not drawn), the cytotoxicity at 70.5 h was 8.32%.
Turning to `COc1cc(C(=O)NS(=O)(=O)c2ccc(C#N)cc2)ccc1C`, the cytotoxicity at 70.5 h was -5.03%.
Regarding `COc1cc(C(=O)NS(=O)(=O)c2cccc(C#N)c2)cc(OC)c1C`, the cytotoxicity at 70.5 h is -9.63%.
In the case of `COc1ccc(C(=O)NS(=O)(=O)c2cccc(C#N)c2)cc1`, the cytotoxicity at 70.5 h is 13.5%.
The same measure for `Cc1cnn(CC2CN(Cc3nnc(C4CC4)n3C)CCO2)c1` (stereo not drawn): -4.23%.
The result for `NC(=O)NCC1CCCCN1Cc1nc(-c2ccco2)no1` (stereo not drawn) reads -9.61%; that for `O=C1NCCN1C1CCCN(Cc2coc(-c3cccs3)n2)C1` (stereo not drawn), -6.11%.
As for `O=C(N1CCCC(n2cncn2)C1)C1(c2cccc(F)c2)CCC1` (stereo not drawn), the cytotoxicity at 70.5 h was -8.35%.
The result for `Cc1ccc(-n2nnc(C(=O)NCC(F)(F)F)c2C2CC2)cc1` reads -5.02%; that for `CC(=O)N(Cc1noc(C2CC2)n1)C1CCN(Cc2ccccn2)C1` (stereo not drawn), -9.44%.
The same measure for `Cc1ccc(-n2nnc(C(=O)NCC3(CO)CC3)c2C2CC2)cc1`: -4.67%; for `O=C(c1cc2c(s1)CCC2)N1CCCC1Cn1cccn1` (stereo not drawn): -1.69%; for `O=C(N1CCCC(n2cncn2)C1)C1(c2cccc(F)c2)CCCC1` (stereo not drawn): 16.5%.
Turning to `CCc1ncncc1C(=O)N1CCN(Cc2cscn2)CC1`, the cytotoxicity at 70.5 h was -3.97%.
The same measure for `O=C(c1cc2c(s1)CCOC2)N1CCCCC1Cn1cccn1` (stereo not drawn): -7.81%; for `CC(=O)N(Cc1noc(C2CC2)n1)C1CCN(Cc2ccccc2)C1` (stereo not drawn): -5.69%.
For `c1sc(C2CCCCC2)nc1CN1CCn2c(nnc2C2CC2)C1`, the cytotoxicity at 70.5 h was -3.37%.
The same measure for `O=C(CN1CC(n2cccn2)C1)NCCCN1CCCC1=O`: 22.2%; for `CC(C)c1ncc2c(n1)CN(Cc1nc(-c3cccnc3)no1)CC2`: 13.2%; for `Cc1c(C(=O)N2CCCC2c2cnn(C)c2)cnn1-c1ccccc1` (stereo not drawn): 17.9%.
